Experimental data taken from US20150307543A1, “POLYMORPH” (ONCOLOGY RESEARCH INTERNATIONAL LIMITED, priority 2012, published 2015).

What was measured:
Format in all cases: physicochemical
[1] = Bulk density and tap density; settings: for Weight of 5.0 cm^3 of Solid: untapped; for Tapped density: after tapping 50 times; for Bulk density: calculated from weight of 5.0 cm^3 of solid; for Volume after tapped 50 times: starting volume 5.0 cm^3, tapped 50 times
Experimental: A comparative study of the bulk density and the tapped density of the 3 solid forms of compound one were carried out. The 3 materials tested were (1) compound I hydrate, (2) the polymorphic form of compound I of the invention and (3) the polymorphic form of compound I isolated from methanol. The tests indicated the weight of material in 5.0 cm^3 of solid (g) to calculate the bulk density. This was then tapped 50 times and the tapped density calculated.

[2] = Dissolution analysis in ethanol (% transmission until complete dissolution); settings: set amount in ethanol with stirring, until % transmission reached 100%, FIG. 6
Experimental: In order to test the solubility of the polymorphs produced in examples 1 and 2 a set amount of the material was added to ethanol with stirring and the % transmission of the mixture thus monitored until the % transmission reached 100% (which indicated complete dissolution). The 3 materials tested were (1) compound I hydrate, (2) the polymorphic form of compound I of the invention and (3) the polymorphic form of compound I isolated from methanol. The results of this experiment were detailed in FIG. 6. […] In contrast the dissolution profile of the polymorphic form of the invention is much slower taking almost 8 times as long to reach full dissolution.

[3] = Dynamic vapour sorption (DVS) at 25° C.; settings: 0% to 95% RH; for total moisture uptake (percent change in mass based on dry mass): first cycle
Experimental: A comparative study of the dynamic vapour sorption (DVS) of the 3 solid forms of compound one were carried out. The 3 materials tested were (1) compound I hydrate, (2) the polymorphic form of compound I of the invention and (3) the polymorphic form of compound I isolated from methanol. The samples were analysed on a DVS automated moisture sorption instrument at 25° C. with sample sizes of 25-52 mg for the analysis. The samples were initially dried for 300 minutes under a continuous flow of air to establish the dry mass. The samples were then exposed to the following typical partial pressure profile: 0% to 90% RH in 10% steps and then followed by a 5% step to 95%. The partial pressure was then decreased in a similar manner.
Typical net percent change in mass (based on dry mass) versus time plots for the first cycle at 25° C. for the three samples are shown in FIGS. 7, 9 and 11. […] The line plotted on the left y-axis, indicates the percentage change in mass referenced to the dry mass (after initial drying stage), m0, as a function of time. The other line, plotted on the right y-axis, traces the requested % partial pressure of water vapour in the DVS as a function of time.
The isotherm plots display the percent change in mass (referenced from the dry mass, m0) versus the requested relative humidity.
For all the RH steps, the instrument was run in a dm/dt mode (mass variation over time variation). A fixed dm/dt value of 0.002% min-1 was selected. This criterion permits the DVS software to automatically determine when equilibrium has been reached and complete a relative humidity step. When the rate of change of mass falls below this threshold over a determined period of time, the humidity will proceed to the next programmed level. A maximum stage time of 360 minutes and a minimum stage time of 10 minutes were selected for this experiment.

[4] = listed as polymorphic form of the invention

## CC1O[C@@H](OC2C(O)[C@H](O)C(CO)O[C@H]2O[C@H]2CC[C@@]3(C)C(=CC[C@H]4[C@@H]5C[C@@H]6O[C@]7(CC[C@@H](C)CO7)[C@@H](C)[C@@H]6[C@@]5(C)CC[C@@H]43)C2)C(O)C(O)[C@H]1O (stereo partly drawn) [Form 1, diosgenyl α-L-rhamnopyranosyl-(1->2)-β-D-glucopyranoside]
[1]; listed as 1
  Weight of 5.0 cm^3 of Solid: 1.430 g
  Tapped density: 0.37 g/mL
  Bulk density: 0.29 g/mL
  Volume after tapped 50 times: 3.9 cm^3
[2]; listed as hydrate
  dissolution rate / dissolution profile (in words): fastest
[3]; listed as anhydrate
  total moisture uptake (percent change in mass based on dry mass): about 5.2%
[3]; listed as hydrate
  percentage of water uptake (in words): relatively high

## CC1O[C@@H](OC2C(O)[C@H](O)C(CO)O[C@H]2O[C@H]2CC[C@@]3(C)C(=CC[C@H]4[C@@H]5C[C@@H]6O[C@]7(CC[C@@H](C)CO7)[C@@H](C)[C@@H]6[C@@]5(C)CC[C@@H]43)C2)C(O)C(O)[C@H]1O (stereo partly drawn) [Form 2, diosgenyl α-L-rhamnopyranosyl-(1->2)-β-D-glucopyranoside]
[1]; listed as 2
  Weight of 5.0 cm^3 of Solid: 1.489 g
  Tapped density: 0.41 g/mL
  Bulk density: 0.30 g/mL
  Volume after tapped 50 times: 3.6 cm^3
[2]
  time to reach full dissolution, relative to the other forms: ~8 times as long
[2]; [4]
  dissolution rate / dissolution profile (in words): much slower
[3]; [4]
  total moisture uptake (percent change in mass based on dry mass): about 0.55%
  percentage of water uptake (in words): low

## CC1O[C@@H](OC2C(O)[C@H](O)C(CO)O[C@H]2O[C@H]2CC[C@@]3(C)C(=CC[C@H]4[C@@H]5C[C@@H]6O[C@]7(CC[C@@H](C)CO7)[C@@H](C)[C@@H]6[C@@]5(C)CC[C@@H]43)C2)C(O)C(O)[C@H]1O (stereo partly drawn) [Form 3, diosgenyl α-L-rhamnopyranosyl-(1->2)-β-D-glucopyranoside]
[1]; listed as 3
  Weight of 5.0 cm^3 of Solid: 0.847 g
  Tapped density: 0.26 g/mL
  Bulk density: 0.17 g/mL
  Volume after tapped 50 times: 3.2 cm^3
[2]; listed as polymorphic form isolated from methanol
  dissolution rate / dissolution profile (in words): very rapid
[3]; listed as polymorph from methanol
  total moisture uptake (percent change in mass based on dry mass): about 2.5%
[3]; listed as polymorph obtained from methanol
  percentage of water uptake (in words): relatively high
